In a melting point compilation (Tetko et al.; mined from patent text by program, amines drawn as free bases though some values may be those of a salt):

| SMILES | melting point [°C] |
| --- | --- |
| COC(=O)C(Cl)=C(C)N | 68 to 70 |
| O=c1[nH]c2scc(C3CC3)c2[nH]c1=O | > 250 |
| CCCCCCCCCCc1ccc2cc(OS(=O)(=O)C(F)(F)F)c(SC)cc2c1 | 42 to 42.9 |
| CCCCCCCCCC(=O)OC1CCC2C3CCC4=CC(=O)CCC4C3CCC12CC (stereo unspecified) | 97 to 97.5 |
| C=CCCn1cc([N+](=O)[O-])nc1Br | 28 to 30 |
| COc1cc(Cc2cnc(N)nc2N)cc(C#Cc2ccc3ccccc3c2)c1OC | 152 to 155 |
| CCOC(=O)c1cnc2cc(OC)c(OC)cc2c1 | > 300 |
| O=[N+]([O-])c1cc(C(c2ccc(O)c([N+](=O)[O-])c2)(C(F)(F)F)C(F)(F)F)ccc1O | 119 to 122 |
| O=C1C=NC(c2cccs2)(C(F)(F)F)O1 (stereo unspecified) | 62 to 65 |
| Cc1ccc(S(=O)(=O)NCCN(C(=O)c2ccccc2C(=O)c2ccccc2)C(C)C)cc1 | 135 to 137 |
| CCCCCc1cc2c(cc1/C=C/C=C/C(C)=C/C(=O)O)C(C)(C)CCC2(C)C | 164 to 166 |
| CCCCCCCCCCCCC(=O)c1c[nH]c(C(=O)OC)c1 | 92 to 93 |
| CCCc1c(OCCCCCCC#N)ccc(C(C)=O)c1O | 64 to 66 |
| CCOC(=O)c1c(CCn2cncn2)nc2sc3c(c2c1-c1ccc(OC)c(OC)c1)CCN(C(=O)c1ccc(Cl)cc1)C3 | 195 to 197 |
| C(=C(\C(=C\c1ccccc1)c1ccccc1)c1ccccc1)/c1ccccc1 | 183 to 184 |
| Cc1nc[nH]c1CSCCNC(=O)NCCSCc1[nH]cnc1C | 225 to 228 |
| CN(C)Cc1ccc(CSCCNC2=NS(=O)(=O)N=C2NO)o1 | 203 to 205 |
| Cc1c(N2CC(C)[C@@](N)(CF)C2)c(F)cc2c(=O)c(C(=O)O)cn([C@@H]3C[C@@H]3F)c12 (stereo partly specified) | 200 to 203 |
| CCn1nc(C)c(NC(N)=S)c1C | 248 |
| Cn1cnc2c(=O)[nH]c(N)nc21 | > 300 |
| C=C(CS(C)(=O)=O)C(=O)O | 147 to 149 |
| COc1c(F)c(F)c(C(=O)c2c(F)c(F)c(F)c(F)c2F)c(OC)c1F | 49 to 50 |

| SMILES | melting point [°C] |
| --- | --- |
| OC1(C23CC4CC(CC(C4)C2)C3)CCCCC1 | 166 to 168 |
| O=C(O)c1ccc(OCCCON=Cc2cc3ccccc3n2Cc2ccccc2)c(-c2ccc(C(F)(F)F)cc2)c1 | 196 to 197 |
| CCC(NC(=S)NCc1ccc(C(C)(C)C)cc1)c1ccc(NS(C)(=O)=O)c(F)c1 (stereo unspecified) | 85 |
| COc1c[nH]c(=O)c([N+](=O)[O-])c1 | 179 |
| COCCOCCOCC(=O)Nc1cc(C(=O)O)cc([N+](=O)[O-])c1 | 136 to 137 |
| CCCCOc1ccc2cc(O)ccc2c1 | 100 to 102 |
| CCCCCCCCCCCCNC(=S)NCCCC | 49 to 55 |
| Cc1onc(-c2ccccc2)c1C(=O)N[C@@H]1N=C(c2ccccc2)c2ccccc2N(C)C1=O | 123 to 126 |
| CCCC1=C(C(=O)OCC)C(C)(c2ccccc2)c2c[nH]nc2N1 (stereo unspecified) | 207 |
| CC(C)N(c1nc(N)nc(-c2cc(Cl)ccc2Cl)n1)C(C)C | 158 to 159 |
| O=C1N[C@H](C(=O)NCCCCO[N+](=O)[O-])CS1 | 68 to 70 |
| CC(C)c1nc(N)c(N)c(=O)[nH]1 | 198 to 200 |
| Cc1csc2c(Cl)c(Cl)c(O)cc12 | 137 to 139 |
| CC(C)(C)OC(=O)N1CCc2[nH]c3cccc(Br)c3c2CC1 | 223 to 225 |
| COc1cc2c(cc1OC)CCN(CCCN(C)C1CCc3cc(OC)c(OC)cc3C1)CC2 (stereo unspecified) | 92 to 93 |
| COC(=O)c1cn2c(C)csc2n1 | 170 to 173 |
| CC(=O)NC(=CBr)C(=O)OC(C)(C)C | 106 to 107 |
| COc1ccc(CC(=O)c2ccc(OC)cc2OC)cc1 | 78.5 to 79.5 |
| c1ccc(COc2cc(OCc3ccccc3)cc(OCc3ccccc3)c2)cc1 | 91.5 to 91.9 |
| CCCCCCCCCCCCCc1c(C(=O)O)sc2c(Br)csc12 | 88 to 90 |
| CCCn1cc2c(C3C(=O)Nc4ccc(Br)cc43)nc(NCCN(C)C)nc2n1 (stereo unspecified) | 270 to 274 |
| CC(C)(O)[C@H](Cc1ccccc1)NC(=O)C(Cl)(Cl)Cl | 88 |

The next lines start with the values.

| melting point [°C] | SMILES |
| --- | --- |
| 179 to 180 | CCOC(=O)C(C#N)=Cc1c(Cl)n(Cc2ccc(Cl)cc2)c2ccccc12 |
| 152 | Cc1ccccc1C1c2ccccc2S(=O)(=O)N1C (single isomer, unassigned; (+)) |
| 178 to 180 | O=C(C1CCN(c2ccncc2)CC1)N1CCCN(S(=O)(=O)c2ccc3ccccc3c2)CC1 |
| 84 to 87 | Cc1c(NC(=O)C(CSC(=O)N(C)C)Cc2ccccc2)cccc1C(=O)O (stereo unspecified) |
| 171 to 172 | COc1ccccc1N1CCN(CCCNC(=O)c2cccc3c(=O)c(C)c(C4(c5ccccc5)CCCC4)oc23)CC1 |
| 186 to 188 | O=C(O)c1cc(-n2c(-c3ccccc3)cc3c2CCCC3)ccc1S |
| 61 to 65 | CCCc1cc(C(=O)O)cc(CCC)c1OCCCCCCc1cccc(OC)c1OC |
| 208 | CCCCC(C(=O)O)c1cccc(C(=O)c2cc3cc(C(=O)O)sc3s2)c1 (stereo unspecified) |
| 157 | O=C(Nc1ccc(Cl)c(Cl)c1)N(O)Cc1ccccc1 |
| 220 | O=C(O)CC1CCC(N2CCN(CCNc3ccncc3)CC2)CC1 (stereo unspecified) |
| 134 to 136 | C[C@@H]1Cc2ccsc2[C@H](C)N1CCCCNS(=O)(=O)c1ccc(NS(C)(=O)=O)cc1 (relative stereo) |
| 169 to 172 | Cc1ccc(NC(=O)c2ccc(CN(C)C)c(C(F)(F)F)c2)cc1Br |
| 268 to 270 | Cc1ccc(-c2c(C#N)n(C)c(=O)c3ncccc23)cc1 |
| 138 to 142 | Cc1cc(C2=NN(c3nccs3)[C@H](C)Cc3cc4c(cc32)OCO4)ccc1[N+](=O)[O-] |
| 168 to 169 | CN(Cc1ccccc1)C1CCN(C(=O)c2ccc(-n3cncn3)cc2)CC1 |
| 191 | COC(=O)C1=C(C)NN=C(c2cccs2)C1c1cccc(Cl)c1 (stereo unspecified) |
| 220 | O=C(Nc1cccc2c1C1CCCCN1C2=O)Nc1ncccc1Br (stereo unspecified) |
| 259 to 261 | CNC(=O)c1cnc(SC)nc1Nc1ccc2[nH]ncc2c1 |
| 128 to 130 | NC1([C@@H]2CCN(c3ccc4c(=O)c(C(=O)O)cn([C@@H]5C[C@@H]5F)c4c3Cl)C2)CC1 |

| melting point [°C] | SMILES |
| --- | --- |
| 150 to 153 | Cc1cc2c(Cl)c3ccccc3c(C=O)c2cc1C |
| 100 | CCCCOC(=O)Nc1cccc(NC(=O)C=C(C)OC)c1 |
| 157 to 158 | COc1ccc(C(CC(=O)c2ccccc2)C(=O)O)cc1 (stereo unspecified) |
| 174 to 176 | O=C(O)CC1CN(Cc2ccc(Cl)c(Cc3ccccc3)c2Cl)C(=O)N(c2ccc(Br)cc2)C1 (stereo unspecified) |
| > 260 | N=C(N)c1ccc(-c2ccc(N3CCN(CCC(=O)O)S3(=O)=O)cc2)cc1 |
| > 300 | CC(=O)Nc1cccc(Nc2ncnc3[nH]cc(C(=O)c4cccc5ccccc45)c23)c1 |
| 70 | CN(C(=O)NC(=O)c1ccccc1)C(=O)Nc1nc(C(Cl)(Cl)Cl)ns1 |
| 132 to 135 | S=C(Nc1cccc(Cl)c1)N1CCCSC1c1ccccc1 (stereo unspecified) |
| 101 | Cc1cccc2nnc(-c3ccccc3)cc12 |
| 72 | COc1cc(Nc2nccc(Nc3cccc(CCO)c3)n2)cc(OC)c1OC |
| 265 to 267 | Cc1nc(-n2ccc(-c3ccc(Cl)cc3)cc2=O)sc1C(=O)NCc1ccccc1 |
| 278 to 282 | O=C(O)CN1C(=O)C(=Cc2c[nH]c3ccc(Cl)cc23)SC1=S |
| 79 to 80 | COc1ccc(CC2=NC(C)(C)CO2)cc1NC(=O)C(C)(C)CCCOc1cc(C)ccc1C |
| 126 to 128 | CNCC(CNC(C)=O)c1cccc2ccc(OC)cc12 (stereo unspecified) |
| 186 to 187 | CC(=O)Cc1ccc(NC(=O)/C=C/c2cnn(C)c2-c2ccc(F)cc2)cc1 |
| 106 to 107 | c1ccc2nc(Cn3ccnc3)ccc2c1 |
| 175 | COc1ccc(N2CCOCC2)c2sc(C(=O)NCC(=O)c3ccc4c(c3)OCCO4)nc12 |
| 151 to 153 | NC(=O)N1CCN(c2nn(-c3ccccc3)c3ccccc23)CC1 |
| 205 to 206 | O=[N+]([O-])c1ccc(-n2ccnn2)cc1 |

| melting point [°C] | SMILES |
| --- | --- |
| 230 to 232 | COc1cc2ncc(C#N)c(Nc3ccc(O)c(Cl)c3)c2cc1OC |
| 114 to 115 | Cc1cc(Br)cnc1CCCCn1nnc2cc(Cc3cccnc3)cnc21 |
| 140 | CCOC(=O)c1[nH]cc2c1NC1=C(C(=O)CCC1)C2c1ccc(Sc2nc3cc(OC)ccc3[nH]2)o1 (stereo unspecified) |
| 198 | CCOC(=O)c1c(N2CCN(C(=O)c3cccs3)CC2)c2ccccc2[nH]c1=O |
| 134 to 136 | O=C(c1ccccc1)C1CCN(CCN(C(=O)c2ccc([N+](=O)[O-])cc2)c2cccnc2)CC1 |
| > 350 | C#Cc1cccc(Nc2ncnc3cc4c(cc23)OCO4)c1 |
| 153 to 158 | Cc1cc2cc(CN3CCOCC3)cnc2cc1NC(=O)c1ccc(-c2ccc(F)cc2)cc1 |
| > 310 | O=C(O)c1cnc(-c2ccc(NC(=O)C(Cl)Cl)cc2)nc1O |
| 157 to 158 | CC(c1ccccc1)N1Cc2cncn2C(c2ccc(C#N)cc2)C1=O (stereo unspecified) |
| 140 to 142 | CS(=O)(=O)c1ccc(-c2cccn2-c2ccccc2)cc1 |
| 140 to 142 | COC1CCN2C(=O)c3cccc(NC(=O)Nc4cnc(C)cn4)c3C2C1 (stereo unspecified) |
| 63 | CCOC(=O)CCc1c(C)nc(SCc2ccc(OC)cc2)n1C |
| 147 | CC(=O)Oc1cc2oc(=O)ccc2cc1C |
| 229 to 231 | CN1C2CCCC1CC(NC(=O)c1cccc3nc(-c4ccc(F)cc4)oc13)C2 (stereo unspecified) |
| 147 to 148 | Cn1c(Cc2cccc(C(F)(F)F)c2)nc2c(-c3cccc(C(=O)NCCO)c3)cccc21 |
| 198 | CC(C)NC(=S)N1CCc2[nH]cnc2C1c1ccccc1 (stereo unspecified) |
| 222 to 225 | Cc1cc(N2CCCC2)cc2c1C(=O)OC2=O |
| 160 | CN1CCCC1=NC(=O)Nc1ccc(Cl)c(Cl)c1 |
| 102 to 104 | CCOC(=O)C1CCN(c2nnc(-c3ccc(C)cc3)c(-c3ccc(C)cc3)n2)CC1 |
